These results are taken from patent publication US20260184707A1, “PHARMACEUTICAL COMPOUNDS FOR THE TREATMENT OF COMPLEMENT MEDIATED DISORDERS” (ALEXION PHARMACEUTICALS, INC., priority 2022, published 2026).

This test has as its target T1, Human complement C1s enzyme (Homo sapiens, UniProt P09871).
T1 construct: purified from human serum, Complement Technology, Inc; purchased Complement Technology, Inc; host or cells: human serum (plasma-derived native protein)
T1 sequence (P09871 438-688 limits assumed): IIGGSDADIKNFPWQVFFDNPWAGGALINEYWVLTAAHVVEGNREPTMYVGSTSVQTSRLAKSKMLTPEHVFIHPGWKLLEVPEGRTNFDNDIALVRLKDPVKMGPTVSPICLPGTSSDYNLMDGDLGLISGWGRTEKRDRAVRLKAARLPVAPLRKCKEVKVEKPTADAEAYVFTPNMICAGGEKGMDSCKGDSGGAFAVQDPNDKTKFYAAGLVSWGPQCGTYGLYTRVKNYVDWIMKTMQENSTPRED
T1 sequence (P09871 16-437 partner limits assumed): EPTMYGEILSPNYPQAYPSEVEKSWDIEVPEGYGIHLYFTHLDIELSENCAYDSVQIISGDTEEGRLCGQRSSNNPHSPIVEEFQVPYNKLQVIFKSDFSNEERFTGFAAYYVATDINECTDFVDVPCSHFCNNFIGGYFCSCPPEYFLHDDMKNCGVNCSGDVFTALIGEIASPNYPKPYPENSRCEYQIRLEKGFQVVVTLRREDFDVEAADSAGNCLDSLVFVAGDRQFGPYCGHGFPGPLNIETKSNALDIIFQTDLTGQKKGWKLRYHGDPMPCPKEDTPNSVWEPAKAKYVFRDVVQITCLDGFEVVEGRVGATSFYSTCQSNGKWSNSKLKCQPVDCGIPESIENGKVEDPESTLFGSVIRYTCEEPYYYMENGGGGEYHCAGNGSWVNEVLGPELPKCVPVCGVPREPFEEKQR
In words: Human C1s enzyme assay. In kind it is biochemical. The following applies: human complement C1s enzyme 1.16 nM, substrate Z-L-Lys-SBzl, A405; read-out: IC50 (Stars). In short, it runs like this:
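Thioesterase activity followed colorimetrically (DTNB, A405, 30-s reads) using 100 μM Z-L-Lys-SBzl substrate. Enzyme, human serum-derived C1s at 1.16 nM final, was incubated with test compound for 5 min, room temperature, pH 7.5 Tris buffer with 1 M NaCl. Rate-versus-concentration data fitted by nonlinear regression for IC50.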

The structures appear in SMILES notation.

By IC50 is commonly meant the point on the concentration scale where inhibition reaches its midpoint.

Turning to `O=C(Cn1c(-c2ccccc2)ncc(NC(=O)c2cccc(Oc3ccccc3)c2)c1=O)NCc1cc2cnccc2[nH]1` [Compound 58, N-(1-(2-(((1H-pyrrolo[3,2-c]pyridin-2-yl)methyl)amino)-2-oxoethyl)-6-oxo-2-phenyl-1,6-dihydropyrimidin-5-yl)-3-phen-oxybenzamide], the IC50 is < 100 nM.

With `O=C(Cn1c(-c2ccc(F)cc2)ncc(NCc2ccc3oc4ccccc4c3c2)c1=O)NCc1cc2cnccc2[nH]1` [Compound 123, N-((1H-pyrrolo[3,2-c]pyridine-2-yl)methyl)-2-(5-((dibenzo[b,d]furan-2-ylmethyl)amino)-2-(4-fluorophenyl)-6-oxopyrimidin-1(6H)-yl)acetamide], the IC50 was < 100 nM.

For `COc1ncc(N[C@H](C)c2ccc3oc4ccccc4c3c2)c(=O)n1CC(=O)NCc1cc2cnccc2[nH]1` [Compound 319, (R)—N-((1H-pyrrolo[3,2-c]pyridine-2-yl)methyl)-2-(5-((1-(dibenzo[b,d]furan-2-yl)ethyl)amino)-2-methoxy-6-oxopyrimidin-1(6H)-yl)acetamide], the IC50 was > 1000 nM.

On to `O=C(Cn1c(-c2ccccc2)ncc(NCCCc2ccc3sc4ccccc4c3c2)c1=O)NCc1cc2cnccc2[nH]1` [Compound 64, N-((1H-pyrrolo[3,2-c]pyridin-2-yl)methyl)-2-(5-((3-(dibenzo [b,d]thiophen-2-yl)propyl)-amino)-6-oxo-2-phenylpyrimi-din-1(6H)-yl)acetamide], for which the IC50 was < 100 nM.

As for `O=C(Cn1c(-c2ccccc2)ncc(NC(=O)c2ncc(-c3ccccc3)o2)c1=O)NCc1cc2cnccc2[nH]1` [Compound 171, N-(1-(2-(((1H-pyrrolo[3,2-c]pyridine-2-yl)methyl)amino)-2-oxoethyl)-6-oxo-2-phenyl-1,6-dihydropyrimidin-5-yl)-5-phenyloxazole-2-carboxamide], the IC50 was < 100 nM.

As to `O=C(Cn1c(-c2ccccc2)ncc(NCc2cc(-c3ccccc3)no2)c1=O)NCc1cc2cnccc2[nH]1` [Compound 457, N-((1H-pyrrolo[3,2-c]pyridin-2-yl)methyl)-2-(6-oxo-2-phen-yl-5-(((3-phenylisoxazol-5-yl)methyl)amino)pyrimidin-1(6H)-yl)acetamide], the IC50 is < 100 nM.

Regarding `CO[C@@H]1CO[C@H]2[C@@H]1OC[C@H]2Oc1ccc(-c2ncc(NC(=O)c3cnc(-c4ccccc4)s3)c(=O)n2CC(=O)NCc2cc3cnccc3[nH]2)cc1` [Compound 262, N-(1-(2-(((1H-pyrrolo[3,2-c]pyridine-2-yl)methyl)amino)-2-oxoethyl)-2-(4-(((3R,3aR,6R,6aR)-6-methoxyhexahydrofuro[3,2-b]furan-3-yl)oxy)phenyl)-6-oxo-1,6-dihydropyrimidin-5-yl)-2-phenylthiazole-5-carboxamide], the IC50 is < 100 nM.

Take `O=C(Cn1c(-c2ccccc2)ncc(NCCCCCc2ccccc2)c1=O)NCc1cc2cnccc2[nH]1` [Compound 3, N-((1H-pyrrolo[3,2-c]pyridin-2-yl)methyl)-2-(6-oxo-2-phen-yl-5-((5-phenylpentyl)amino)-pyrimidin-1(6H)-yl)acetamide]: the IC50 was < 100 nM.

As to `O=C(Cn1c(-c2ccccc2)ncc(NC(=O)c2csc(-c3cccs3)n2)c1=O)NCc1cc2cnccc2[nH]1` [Compound 227, N-(1-(2-(((1H-pyrrolo[3,2-c]pyridin-2-yl)methyl)amino)-2-oxoethyl)-6-oxo-2-phenyl-1,6-dihydropyrimidin-5-yl)-2-(thiophen-2-yl)thiazole-4-carboxamide], the IC50 is < 100 nM.

Turning to `O=C(Cn1c(-c2ccccc2)cnc(NCCCc2ccccc2)c1=O)NCc1cc2cnccc2[nH]1` [Compound 17, N-((1H-pyrrolo[3,2-c]pyridin-2-yl)methyl)-2-(2-oxo-6-phen-yl-3-((3-phenylpropyl)amino)-pyrazin-1(2H)-yl)acetamide], the IC50 was < 100 nM.

On to `O=C(Cn1c(-c2ccc(N3CCCC3=O)cc2)ncc(NCc2ccc3oc4ccccc4c3c2)c1=O)NCc1cc2cnccc2[nH]1` [Compound 153, N-((1H-pyrrolo[3,2-c]pyridin-2-yl)methyl)-2-(5-((dibenzo [b,d]furan-2-ylmethyl)amino)-6-oxo-2-(4-(2-oxopyrrolidin-1-yl)phenyl)pyrimidin-1(6H)-yl)acetamide], for which the IC50 is < 100 nM.

Regarding `O=C(Cn1c(-c2ccccc2)ncc(NC(=O)c2cc(-c3ccccc3)cs2)c1=O)NCc1cc2cnccc2[nH]1` [Compound 210, N-(1-(2-(((1H-pyrrolo[3,2-c]pyridin-2-yl)methyl)amino)-2-oxoethyl)-6-oxo-2-phenyl-1,6-dihydropyrimidin-5-yl)-4-phen-ylthiophene-2-carboxamide], the IC50 was < 100 nM.

Take `O=C(Cn1c(-c2ccccc2)ncc(N2CC3CCC2C3)c1=O)NCc1cc2cnccc2[nH]1` (centres unmarked) [Compound 65, N-((1H-pyrrolo[3,2-c]pyridin-2-yl)methyl)-2-(5-(2-azabicyclo [2.2.1]heptan-2-yl)-6-oxo-2-phenylpyrimidin-1(6H)-yl)-acetamide]: the IC50 was in the range of 100 to 1000 nM.

As to `O=C(Cn1c(-c2ccccc2)ncc(NCCNC(=O)c2ccc3c(c2)-c2ccccc2C3(F)F)c1=O)NCc1cc2cnccc2[nH]1` [Compound 36, N-(2-((1-(2-(((1H-pyrrolo[3,2-c]pyridin-2-yl)methyl)amino)-2-oxoethyl)-6-oxo-2-phenyl-1,6-dihydropyrimidin-5-yl)-amino)ethyl)-9,9-difluoro-9H-fluorene-3-carboxamide], the IC50 is < 100 nM.

As for `C[C@@H](Nc1cnc(-c2ccccc2)n(CC(=O)NCc2cc3cnccc3[nH]2)c1=O)c1ccc(-c2ccccc2)cc1` [Compound 275, (R)-N-((1H-pyrrolo[3,2-c]pyr-idin-2-yl)methyl)-2-(5-((1-([1,1′-biphenyl]-4-yl)ethyl)-amino)-6-oxo-2-phenylpyrimi-din-1(6H)-yl)acetamide], the IC50 is < 100 nM.

As for `O=C(Cn1c(-c2ccccc2)ncc(Nc2ccc3c(c2)oc2ccccc23)c1=O)NCc1cc2cnccc2[nH]1` [Compound 245], the IC50 was < 100 nM.

As to `C[C@@H](Nc1ncc(C2=CCCCC2)n(CC(=O)NCc2cc3cnccc3[nH]2)c1=O)c1ccc2oc3ccccc3c2c1` [Compound 427, (R)-N-((1H-pyrrolo[3,2-c]pyridin-2-yl)methyl)-2-(6-(cyclohex-1-en-1-yl)-3-((1-(dibenzo[b,d]furan-2-yl)ethyl)-amino)-2-oxopyrazin-1(2H)-yl)acetamide], the IC50 was < 100 nM.

`C[C@@H](Nc1cnc(N2CCNCC2)n(CC(=O)NCc2cc3cnccc3[nH]2)c1=O)c1ccc2oc3ccccc3c2c1` [Compound 376, (R)—N-((1H-pyrrolo[3,2-c]pyridine-2-yl)methyl)-2-(5-((1-(dibenzo[b,d]furan-2-yl)ethyl)amino)-6-oxo-2-(piperazin-1-yl)pyrimidin-1(6H)-yl)acetamide]: the IC50 is < 100 nM.

In the case of `O=C(Cn1c(-c2ccccc2)ncc(NCc2ccc3oc4ccccc4c3c2)c1=O)NCc1cc2cnccn2c1` [Compound 144, 2-(5-((dibenzo[b,d]furan-2-ylmethyl)amino)-6-oxo-2-phenylpyrimidin-1(6H)-yl)-N-(pyrrolo[1,2-a]pyrazin-7-ylmethyl)acetamide], the IC50 is > 1000 nM.

Consider `NS(=O)(=O)COc1ccc(-c2ncc(NCCCc3ccccc3)c(=O)n2CC(=O)NCc2cc3cnccc3[nH]2)cc1` [Compound 67, N-((1H-pyrrolo[3,2-c]pyridine-2-yl)methyl)-2-(6-oxo-5-((3-phenylpropyl)amino)-2-(4-(sulfamoylmethoxy)phenyl)pyrimidin-1(6H)-yl)acetamide], for which the 50% inhibitory concentration (IC50) is < 100 nM.

For the compound `CP(=O)(O)c1ccc(-c2ncc(NCCCc3ccccc3)c(=O)n2CC(=O)NCc2cc3cnccc3[nH]2)cc1` [Compound 68, (4-(1-(2-(((1H-pyrrolo[3,2-c]pyridine-2-yl)methyl)amino)-2-oxoethyl)-6-oxo-5-((3-phenylpropyl)amino)-1,6-dihydropyrimidin-2-yl)phenyl)(methyl)phosphinic acid], the half-inhibitory concentration (IC50) is < 100 nM.

Regarding `O=C(Cn1c(-c2ccccc2)ncc(NCc2ccc3c(c2)-c2ccccc2C3(F)F)c1=O)NCc1cc2cnccc2[nH]1` [Compound 22, N-((1H-pyrrolo[3,2-c]pyridin-2-yl)methyl)-2-(5-(((9,9-difluoro-9H-fluoren-3-yl)meth-yl)amino)-6-oxo-2-phenyl-pyrimidin-1(6H)-yl)acetamide], the IC50 was < 100 nM.

For the compound `COc1ccc(-c2ncc(N[C@H](C)c3ccc4oc5ccccc5c4c3)c(=O)n2CC(=O)NCc2cc3cnccc3[nH]2)cc1` [Compound 248, (R)-N-((1H-pyrrolo[3,2-c]pyr-idin-2-yl)methyl)-2-(5-((1-(dibenzo[b,d]furan-2-yl)ethyl)-amino)-2-(4-methoxyphenyl)-6-oxopyrimidin-1(6H)-yl)-acetamide], the IC50 was < 100 nM.
